Data from BigSolDB 2.1.

Compound `OC[C@@H](O)[C@@H](O[C@H]1O[C@H](CO)[C@@H](O)[C@H](O)[C@H]1O)[C@H](O)[C@@H](O)CO` has a solubility (mole fraction) (in DMF, 298.15 K) of 0.00761, a solubility (mole fraction) (in DMF, 303.15 K) of 0.00819 and a solubility (mole fraction) (in DMF, 308.15 K) of 0.00922. For the same compound, the solubility (mole fraction) (in DMF, 313.15 K) was 0.0109, the solubility (mole fraction) (in DMF, 318.15 K) was 0.0128 and the solubility (mole fraction) (in DMF, 323.15 K) was 0.0153. It also gave a solubility (mole fraction) (in ethanol, 298.15 K) of 3.6e-05, a solubility (mole fraction) (in ethanol, 303.15 K) of 4.4e-05 and a solubility (mole fraction) (in ethanol, 308.15 K) of 5.2e-05. The solubility (mole fraction) (in ethanol, 313.15 K) was 6.2e-05, the solubility (mole fraction) (in ethanol, 318.15 K) was 7.4e-05 and the solubility (mole fraction) (in ethanol, 323.15 K) was 9.4e-05. The solubility (mole fraction) (in isopropanol, 298.15 K) was 1.9e-05, the solubility (mole fraction) (in isopropanol, 303.15 K) was 2.3e-05 and the solubility (mole fraction) (in isopropanol, 308.15 K) was 2.7e-05. The solubility (mole fraction) (in isopropanol, 313.15 K) was 3e-05, the solubility (mole fraction) (in isopropanol, 318.15 K) was 3.8e-05 and the solubility (mole fraction) (in isopropanol, 323.15 K) was 5.1e-05. The solubility (mole fraction) (in methanol, 298.15 K) was 0.00029, the solubility (mole fraction) (in methanol, 303.15 K) was 0.000337 and the solubility (mole fraction) (in methanol, 308.15 K) was 0.000393. For the same compound, the solubility (mole fraction) (in methanol, 313.15 K) was 0.000453, the solubility (mole fraction) (in methanol, 318.15 K) was 0.000552 and the solubility (mole fraction) (in methanol, 323.15 K) was 0.000706. For the same compound, the solubility (mole fraction) (in water, 298.15 K) was 0.0616, the solubility (mole fraction) (in water, 303.15 K) was 0.0671 and the solubility (mole fraction) (in water, 308.15 K) was 0.0786. For the same compound, the solubility (mole fraction) (in water, 313.15 K) was 0.0972, the solubility (mole fraction) (in water, 318.15 K) was 0.111 and the solubility (mole fraction) (in water, 323.15 K) was 0.125.
